# Assay results as given in patent US20230364104A1, “PHARMACEUTICAL COMBINATION FOR THE TREATMENT OF HUMAN HYPOCHOLINERGIC DISORDERS” (priority 2020, published 2023).
# Where two headings read alike, the source gives them in different places.
# Experiments:
# [1] = system: myocardial tissue; conditions: acetylcholine 1 μM, cited from earlier work
# [2] = oral pirenzepine 100-300 mg co-administered with donepezil, healthy volunteers
# [3] = in vivo; cited from earlier work
SMILES,suppression of the effect of acetylcholine ([1]; antagonist 1 μM),also measured
"C[N+]1(C)CCC(OC(=O)C(c2ccccc2)c2ccccc2)CC1.[I-] [4DAMP, 4-[(Diphenylacetyl)oxy]-1,1-dimethylpiperidin-1-ium iodide]",–,suppression of the effect of acetylcholine ([1]; antagonist 0.1 μM): did not suppress the effect of acetylcholine
"CN1CCN(CC(=O)N2c3ccccc3C(=O)Nc3cccnc32)CC1 [pirenzepine, 11-[(4-methylpiperazin-1-yl)acetyl]-5,11-dihydro-6H-pyrido[2,3-b][1,4]benzodiazepin-6-one]",did not suppress the effect of acetylcholine,increase in the tolerated dose of donepezil [2]: enabling the safe increase in the dose of donepezil
O=C(O[C@H]1CN2CCC1CC2)N1CCc2ccccc2[C@@H]1c1ccccc1 [solifenacin],–,effect on QTc [3]: increase in QTc
CN1[C@@H]2CC[C@H]1C[C@@H](OC(=O)C(CO)c1ccccc1)C2 (stereo partly drawn) [atropine],completely abolished the effect of acetylcholine,–
"CCN(CC)CCCCC1CCN(CC(=O)N2c3ccccc3C(=O)Nc3cccnc32)CC1 [AQ-RA 741, 11-[[4-[4-(diethylamino)butyl]-1-piperidinyl]acetyl]-5,11-dihydro-6H-pyrido[2,3-b] [1,4]benzodiazepin-6-one]",partial suppression of the effect of acetylcholine,–
